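The compound was tested at five concentrations on cells cultured in 96-well plates, with a 48-hour exposure period. TGI denotes the concentration required for complete inhibition of growth.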
What was measured:
Test in all cases: NCI tumour cell line growth inhibition, 48 h
786-0 renal = test system: 786-0 renal
HT29 colon = test system: HT29 colon
SW-620 colon = test system: SW-620 colon
OVCAR-3 ovarian = test system: OVCAR-3 ovarian
EKVX NSCLC = test system: EKVX NSCLC
U251 CNS = test system: U251 CNS
SK-MEL-28 melanoma = test system: SK-MEL-28 melanoma
UACC-62 melanoma = test system: UACC-62 melanoma
TK-10 renal = test system: TK-10 renal
KM12 colon = test system: KM12 colon
SF-539 CNS = test system: SF-539 CNS
OVCAR-4 ovarian = test system: OVCAR-4 ovarian
RPMI-8226 leukemia = test system: RPMI-8226 leukemia
SK-MEL-5 melanoma = test system: SK-MEL-5 melanoma
SNB-75 CNS = test system: SNB-75 CNS
NCI-H226 lung = test system: NCI-H226 lung
SK-OV-3 ovarian = test system: SK-OV-3 ovarian
SR leukemia = test system: SR leukemia

SMILES | TGI (786-0 renal) [µM] | TGI (HT29 colon) [µM] | TGI (SW-620 colon) [µM] | TGI (OVCAR-3 ovarian) [µM] | TGI (EKVX NSCLC) [µM] | TGI (U251 CNS) [µM] | TGI (SK-MEL-28 melanoma) [µM] | TGI (UACC-62 melanoma) [µM] | TGI (TK-10 renal) [µM] | TGI (KM12 colon) [µM] | TGI (SF-539 CNS) [µM] | TGI (OVCAR-4 ovarian) [µM] | TGI (RPMI-8226 leukemia) [µM] | TGI (SK-MEL-5 melanoma) [µM] | TGI (SNB-75 CNS) [µM] | TGI (NCI-H226 lung) [µM] | TGI (SK-OV-3 ovarian) [µM] | TGI (SR leukemia) [µM]
CCc1cc2c(O)c(c1)Cc1cc(CC)cc(c1O)Cc1cc(CC)cc(c1O)Cc1cc(CC)cc(c1O)Cc1cc(CC)cc(c1O)Cc1cc(CC)cc(c1O)Cc1cc(CC)cc(c1O)C2 | > 100 | > 100 | > 100 | > 100 | > 100 | > 100 | > 100 | > 100 | > 100 | > 100 | > 100 | > 100 | > 100 | > 100 | 61.4 | – | – | –
CC1(C)c2ccccc2N2O[C@@H]3C(=O)N(c4ccccc4)C(=O)[C@@H]3C21c1ccccc1 (stereo partly drawn) | > 100 | > 100 | > 100 | > 100 | > 100 | – | > 100 | > 100 | > 100 | > 100 | > 100 | – | > 100 | > 100 | > 100 | > 100 | > 100 | –
COC(=O)c1c(-c2cc(OC)c(OC)c(OC)c2)oc2ccccc2c1=O | > 100 | > 100 | > 100 | > 100 | > 100 | > 100 | – | > 100 | > 100 | > 100 | > 100 | > 100 | > 100 | > 100 | > 100 | > 100 | > 100 | –
CC(C)(C)[C@H]1CO[C@]2(c3ccccc3)[C@@H]3C[C@@H]3C(=O)N12 | > 100 | > 100 | > 100 | > 100 | > 100 | > 100 | > 100 | > 100 | > 100 | > 100 | > 100 | > 100 | > 100 | > 100 | > 100 | > 100 | > 100 | > 100
CCOC(=N)CC(=O)Nc1ccccc1 | > 46.4 | > 46.4 | > 67.6 | > 31.6 | > 100 | > 100 | > 46.4 | > 100 | > 46.4 | > 46.4 | > 46.4 | > 46.4 | 22.8 | > 46.4 | > 46.4 | > 31.6 | > 100 | > 69.1
CC(=O)c1ccccc1NC(=O)C(=O)C(C(=O)c1ccccc1-c1ccccc1)C1OC(=O)c2ccccc21 (stereo not drawn) | 34.3 | 56.1 | 86.5 | 48.1 | 65 | 30.3 | – | 38.8 | 32 | 34.3 | 37.2 | > 100 | > 100 | 33.8 | 51.7 | 36.2 | > 100 | 88.9
CCN(CC)C(=S)SCC(=O)Nc1nc2c(s1)CCCC2 | > 100 | > 100 | > 100 | – | – | > 100 | > 100 | – | > 100 | > 100 | > 100 | > 100 | > 100 | 49.7 | > 100 | > 100 | > 100 | 90.7
CC1(C)C(=O)C(C)(C)C1=NNC(N)=S | > 100 | > 100 | > 100 | > 100 | – | > 100 | > 100 | > 100 | > 100 | > 100 | > 100 | > 100 | > 100 | > 100 | > 100 | > 100 | > 100 | > 100
Cn1c(=O)cc2[nH]c3ccccc3n2c1=O | 62.9 | > 100 | 61.3 | > 100 | > 100 | 31.2 | > 100 | > 100 | > 100 | > 100 | 46.3 | > 100 | > 100 | > 100 | > 100 | > 100 | > 100 | > 100
COC(=O)CC(C(C(=O)OC)C(=O)OC)N1C(=O)OC(c2ccccc2)C1c1ccccc1 (stereo not drawn) | > 100 | > 100 | 74.3 | > 100 | > 100 | > 100 | > 100 | > 100 | > 100 | > 100 | > 100 | > 100 | > 100 | > 100 | > 100 | > 100 | > 100 | –
COc1ccc(OC)c(NC(=O)C(=O)CC(=O)c2sc(-n3nc(-c4ccccc4)cc3-c3ccccc3)nc2C)c1 | > 100 | > 100 | > 100 | > 100 | – | > 100 | – | > 100 | > 100 | > 100 | > 100 | > 100 | > 100 | – | > 100 | > 100 | > 100 | > 100
Cc1ccc(/C=C/C(=O)c2sc(-n3nc(-c4ccccc4)cc3-c3ccccc3)nc2C)cc1 | > 100 | > 100 | > 100 | > 100 | > 100 | > 100 | > 100 | > 100 | > 100 | > 100 | > 100 | – | > 100 | > 100 | > 100 | > 100 | > 100 | –
COc1cc2c(oc(=O)c3cc4cc([Si](C)(C)C)oc4c(OC)c32)c2cccc(O)c12 | > 100 | > 100 | > 100 | > 100 | > 100 | > 100 | > 100 | > 100 | > 100 | > 100 | > 100 | > 100 | > 100 | > 100 | > 100 | > 100 | > 100 | > 100
CC1=NN2C(c3ccc([N+](=O)[O-])cc3)=CSC2=NC(C)(C)C1 | > 100 | > 100 | > 100 | > 100 | > 100 | > 100 | > 100 | > 100 | > 100 | > 100 | > 100 | > 100 | > 100 | > 100 | > 100 | > 100 | > 100 | > 100
